In ChEMBL document CHEMBL3785021, “Isatin analogs as novel inhibitors of Candida spp. β-carbonic anhydrase enzymes” (Bioorg Med Chem, 2016):

Assays:
[1] = molecular target: T1, Carbonic anhydrase (Candida albicans (strain SC5314 / ATCC MYA-2876) (Yeast), UniProt Q5AJ71); assay: Inhibition of recombinant Candida albicans beta carbonic anhydrase NCE103 expressed in Escherichia coli preincubated for 15 mins by stopped-flow CO2 hydration assay
T1 sequence (Q5AJ71 whole entry): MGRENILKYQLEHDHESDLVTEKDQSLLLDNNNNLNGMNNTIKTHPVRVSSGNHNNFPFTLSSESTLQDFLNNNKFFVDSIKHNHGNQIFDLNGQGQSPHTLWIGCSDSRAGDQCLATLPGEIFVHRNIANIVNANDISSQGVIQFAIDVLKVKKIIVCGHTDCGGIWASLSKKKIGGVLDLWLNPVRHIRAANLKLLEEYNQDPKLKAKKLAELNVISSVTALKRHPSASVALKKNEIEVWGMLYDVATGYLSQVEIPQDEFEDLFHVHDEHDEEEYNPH

[2] = molecular target: T2, Carbonic anhydrase (Candida glabrata CBS 138, UniProt Q6FTL6); assay: Inhibition of recombinant Candida glabrata beta carbonic anhydrase NCE103 expressed in Escherichia coli preincubated for 15 mins by stopped-flow CO2 hydration assay; parameters: species or system Nakaseomyces glabratus
T2 sequence (Q6FTL6 whole entry): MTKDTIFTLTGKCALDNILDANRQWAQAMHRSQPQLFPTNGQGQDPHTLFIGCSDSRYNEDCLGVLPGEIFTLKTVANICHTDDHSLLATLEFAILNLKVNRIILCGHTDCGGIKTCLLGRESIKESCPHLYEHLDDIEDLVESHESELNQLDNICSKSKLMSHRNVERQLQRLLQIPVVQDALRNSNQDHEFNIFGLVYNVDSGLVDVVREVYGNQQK

[3] = molecular target: Carbonic anhydrase 2 (Homo sapiens, UniProt P00918); assay: Inhibition of recombinant human carbonic anhydrase 2 expressed in Escherichia coli preincubated for 15 mins by stopped-flow CO2 hydration assay
[4] = molecular target: Carbonic anhydrase 1 (Homo sapiens, UniProt P00915); assay: Inhibition of recombinant human carbonic anhydrase 1 expressed in Escherichia coli preincubated for 15 mins by stopped-flow CO2 hydration assay
Sequence of Carbonic anhydrase 1 (P00915 whole entry): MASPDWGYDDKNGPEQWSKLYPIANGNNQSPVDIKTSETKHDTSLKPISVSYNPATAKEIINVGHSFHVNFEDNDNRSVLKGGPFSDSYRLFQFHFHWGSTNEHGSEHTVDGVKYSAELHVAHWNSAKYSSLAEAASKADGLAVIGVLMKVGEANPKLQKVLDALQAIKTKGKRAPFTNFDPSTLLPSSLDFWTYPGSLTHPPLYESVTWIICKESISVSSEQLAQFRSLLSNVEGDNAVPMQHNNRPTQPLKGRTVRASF

Row | Compound | Ki [1] [nM] | Ki [2] [nM] | Ki [3] [nM] | Ki [4] [nM]
1 | NS(=O)(=O)c1ccccc1/N=C1\C(=O)Nc2ccc(OC(F)(F)F)cc21 | 295 | 154 | – | –
2 | NS(=O)(=O)c1ccccc1/N=C1\C(=O)Nc2ccc(Cl)cc21 | 65.7 | 58.9 | – | –
3 | NS(=O)(=O)c1ccc(/N=C2\C(=O)Nc3ccc(F)cc32)cc1 | 85.2 | 21.6 | – | –
4 | NS(=O)(=O)c1ccccc1/N=C1\C(=O)Nc2ccccc21 | 136 | 66.5 | – | –
5 | Cc1ccc2c(c1)/C(=N/c1ccc(S(N)(=O)=O)cc1)C(=O)N2 | 128 | 29.7 | – | –
6 | Cc1ccc2c(c1)/C(=N/c1ccccc1S(N)(=O)=O)C(=O)N2 | 139 | 62.3 | – | –
7 | CN1C(=O)/C(=N\c2ccc(S(N)(=O)=O)cc2)c2cc(Br)ccc21 | 156 | 37.1 | – | –
8 | NS(=O)(=O)c1cccc(/N=C2\C(=O)Nc3ccc(OC(F)(F)F)cc32)c1 | 88 | 53.5 | – | –
9 | Cc1ccc2c(c1)/C(=N/c1ccc(S(N)(=O)=O)cc1)C(=O)N2C | 84.1 | 35.3 | – | –
10 | CN1C(=O)/C(=N\c2ccc(S(N)(=O)=O)cc2)c2cc([N+](=O)[O-])ccc21 | 21.7 | 16.3 | – | –
11 | NS(=O)(=O)c1cccc(/N=C2\C(=O)Nc3ccc(F)cc32)c1 | 61.3 | 45.1 | – | –
12 | CN1C(=O)/C(=N\c2ccc(S(N)(=O)=O)cc2)c2ccccc21 | 75.9 | 39.7 | – | –
13 | NS(=O)(=O)c1ccccc1/N=C1\C(=O)Nc2ccc(F)cc21 | 91.5 | 55.4 | – | –
14 | NS(=O)(=O)c1ccc(/N=C2\C(=O)Nc3ccc(OC(F)(F)F)cc32)cc1 | 53.6 | 45.1 | – | –
15 | NS(=O)(=O)c1ccc(/N=C2\C(=O)Nc3ccc(Cl)cc32)cc1 | 83.3 | 38.2 | – | –
16 | NS(=O)(=O)c1cccc(/N=C2\C(=O)Nc3ccc(Cl)cc32)c1 | 54.8 | 50.1 | – | –
17 | NS(=O)(=O)c1ccc(/N=C2\C(=O)Nc3ccc([N+](=O)[O-])cc32)cc1 | 34.1 | 22.8 | – | –
18 | NS(=O)(=O)c1ccc(N=C2C(=O)Nc3ccccc32)cc1 | 86.5 | 48.4 | 523 | 422
19 | CN1C(=O)/C(=N\c2ccc(S(N)(=O)=O)cc2)c2cc(Cl)ccc21 | 178 | 36.5 | – | –
20 | NS(=O)(=O)c1cccc(/N=C2\C(=O)Nc3ccccc32)c1 | 98.1 | 85.1 | – | –
21 | Cc1ccc2c(c1)/C(=N/c1cccc(S(N)(=O)=O)c1)C(=O)N2 | 157 | 45.9 | 565 | –
22 | CN1C(=O)/C(=N\c2ccc(S(N)(=O)=O)cc2)c2cc(F)ccc21 | 79.3 | 32.4 | – | –
23 | NS(=O)(=O)c1cccc(/N=C2\C(=O)Nc3ccc([N+](=O)[O-])cc32)c1 | 35.7 | 23.1 | – | –
